Data on one compound can be found in article PMC5218480 (PLoS ONE, 2017).

In this assay the test system is MV-4-11 cells. The assay can be described thus: Gene expression microarray analysis (Affymetrix PrimeView) and GSEA. The arrangement: RFU PODN (11730768_x_at) / Fold change /veh PODN (11730768_x_at) / RFU LINC00158 (11744669_a_at) / Fold change /veh LINC00158 (11744669_a_at) / RFU DUSP10 (11751237_a_at) / Fold change /veh DUSP10 (11751237_a_at) / RFU ID3 (11757404_x_at) / Fold change /veh ID3 (11757404_x_at) / RFU PLEKHG5 (11737974_s_at) / Fold change /veh PLEKHG5 (11737974_s_at) / RFU LRRC4B (11730491_at) / Fold change /veh LRRC4B (11730491_at) / RFU GIMAP4 (11747438_a_at) / Fold change /veh GIMAP4 (11747438_a_at) / RFU KRT8 (11758183_x_at) / Fold change /veh KRT8 (11758183_x_at) / RFU CNN1 (11734310_a_at) / Fold change /veh CNN1 (11734310_a_at) / RFU VPS37D (11726825_at) / Fold change /veh VPS37D (11726825_at) / RFU C10orf10 (11716522_x_at) / Fold change /veh C10orf10 (11716522_x_at) / RFU KIR2DL2 /// KIR2DL4 /// KIR2DL5A /// KIR2DL5B /// KIR2DS1 /// KIR2DS2 /// KIR2DS3 /// KIR2DS4 /// KIR3DL3 /// KIR3DL3 /// KIR3DS1 (11738374_at) / Fold change /veh KIR2DL2 /// KIR2DL4 /// KIR2DL5A /// KIR2DL5B /// KIR2DS1 /// KIR2DS2 /// KIR2DS3 /// KIR2DS4 /// KIR3DL3 /// KIR3DL3 /// KIR3DS1 (11738374_at) / RFU C1QL1 (11718748_at) / Fold change /veh C1QL1 (11718748_at) / RFU TMPRSS4 (11747572_a_at) / Fold change /veh TMPRSS4 (11747572_a_at) / RFU HAMP (11756126_x_at) / Fold change /veh HAMP (11756126_x_at) / RFU RNFT2 (11725882_a_at) / Fold change /veh RNFT2 (11725882_a_at) / RFU NR4A2 (11747474_a_at) / Fold change /veh NR4A2 (11747474_a_at) / RFU ABCC12 (11746883_a_at) / Fold change /veh ABCC12 (11746883_a_at) / RFU TMEM136 (11760407_x_at) / Fold change /veh TMEM136 (11760407_x_at) / RFU CLDN22 /// WWC2 (11732394_at) / Fold change /veh CLDN22 /// WWC2 (11732394_at) / RFU HLA-DPB1 (11760878_x_at) / Fold change /veh HLA-DPB1 (11760878_x_at) / RFU SPINT1 (11716480_a_at) / Fold change /veh SPINT1 (11716480_a_at) / RFU GAP43 (11754022_s_at) / Fold change /veh GAP43 (11754022_s_at) / RFU A4GNT (11735810_at) / Fold change /veh A4GNT (11735810_at) / RFU PRB3 (11715151_x_at) / Fold change /veh PRB3 (11715151_x_at) / RFU TUBB4B (11761932_at) / Fold change /veh TUBB4B (11761932_at) / RFU CAPN14 (11732068_a_at) / Fold change /veh CAPN14 (11732068_a_at) / RFU TMCC2 (11721928_a_at) / Fold change /veh TMCC2 (11721928_a_at) / RFU IRGQ (11745062_a_at) / Fold change /veh IRGQ (11745062_a_at) / RFU FAM174B (11720279_a_at) / Fold change /veh FAM174B (11720279_a_at) / RFU TMPRSS4 (11748680_a_at) / Fold change /veh TMPRSS4 (11748680_a_at) / RFU FAM212B (11763350_a_at) / Fold change /veh FAM212B (11763350_a_at) / RFU PLEKHG5 (11743358_a_at) / Fold change /veh PLEKHG5 (11743358_a_at) / RFU ZSCAN30 (11745921_a_at) / Fold change /veh ZSCAN30 (11745921_a_at) / RFU CMKLR1 (11741424_a_at) / Fold change /veh CMKLR1 (11741424_a_at) / RFU LOC101060620 /// MAPK8IP1 (11723275_at) / Fold change /veh LOC101060620 /// MAPK8IP1 (11723275_at) / RFU SPTSSB (11747773_x_at) / Fold change /veh SPTSSB (11747773_x_at) / RFU PRSS12 (11739890_at) / Fold change /veh PRSS12 (11739890_at) / RFU BIN1 (11741810_x_at) / Fold change /veh BIN1 (11741810_x_at) / RFU WNT11 (11732464_a_at) / Fold change /veh WNT11 (11732464_a_at) / RFU C10orf10 (11716521_a_at) / Fold change /veh C10orf10 (11716521_a_at) / RFU C5orf56 (11738089_at) / Fold change /veh C5orf56 (11738089_at) / RFU CYB561 (11721691_x_at) / Fold change /veh CYB561 (11721691_x_at) / RFU ANKRD19P (11752326_a_at) / Fold change /veh ANKRD19P (11752326_a_at) / RFU OR2T12 /// OR2T33 /// OR2T8 (11738714_s_at) / Fold change /veh OR2T12 /// OR2T33 /// OR2T8 (11738714_s_at) / RFU VCAN (11748164_a_at) / Fold change /veh VCAN (11748164_a_at) / RFU JSRP1 (11732532_at) / Fold change /veh JSRP1 (11732532_at) / RFU KRTAP10-11 (11738290_x_at) / Fold change /veh KRTAP10-11 (11738290_x_at) / RFU MYO3A (11730013_a_at) / Fold change /veh MYO3A (11730013_a_at) / RFU EBF3 (11725865_a_at) / Fold change /veh EBF3 (11725865_a_at) / RFU CAMK2N1 (11719241_x_at) / Fold change /veh CAMK2N1 (11719241_x_at) / RFU C5orf56 (11738088_a_at) / Fold change /veh C5orf56 (11738088_a_at) / RFU OLFML3 (11715873_a_at) / Fold change /veh OLFML3 (11715873_a_at) / RFU LOC100653217 /// NTM (11731650_a_at) / Fold change /veh LOC100653217 /// NTM (11731650_a_at) / RFU MAPK11 (11762145_a_at) / Fold change /veh MAPK11 (11762145_a_at) / RFU FIZ1 (11724087_x_at) / Fold change /veh FIZ1 (11724087_x_at) / RFU OASL (11726364_x_at) / Fold change /veh OASL (11726364_x_at) / RFU SOX15 (11748057_x_at) / Fold change /veh SOX15 (11748057_x_at) / RFU CD79A (11719716_a_at) / Fold change /veh CD79A (11719716_a_at) / RFU HIST1H1D (11736915_at) / Fold change /veh HIST1H1D (11736915_at) / RFU CASKIN2 (11723855_a_at) / Fold change /veh CASKIN2 (11723855_a_at) / RFU LOC730098 (11760151_x_at) / Fold change /veh LOC730098 (11760151_x_at) / RFU OR4N2 (11742367_at) / Fold change /veh OR4N2 (11742367_at) / RFU PRRT2 (11749266_a_at) / Fold change /veh PRRT2 (11749266_a_at) / RFU SNX32 (11753110_a_at) / Fold change /veh SNX32 (11753110_a_at) / RFU CDHR5 (11726645_a_at) / Fold change /veh CDHR5 (11726645_a_at) / RFU RCAN1 (11760418_a_at) / Fold change /veh RCAN1 (11760418_a_at) / RFU FAM167A (11723789_a_at) / Fold change /veh FAM167A (11723789_a_at) / RFU FAM26E (11764081_at) / Fold change /veh FAM26E (11764081_at) / RFU ISYNA1 (11749810_s_at) / Fold change /veh ISYNA1 (11749810_s_at) / RFU ACY1 (11761880_at) / Fold change /veh ACY1 (11761880_at) / RFU 11764098_at / Fold change /veh 11764098_at / RFU SAMD14 (11745864_x_at) / Fold change /veh SAMD14 (11745864_x_at) / RFU NPB (11741838_a_at) / Fold change /veh NPB (11741838_a_at) / RFU TMPRSS6 (11731388_a_at) / Fold change /veh TMPRSS6 (11731388_a_at) / RFU KRTAP10-2 (11738614_at) / Fold change /veh KRTAP10-2 (11738614_at) / RFU ARHGAP8 /// PRR5-ARHGAP8 (11727945_x_at) / Fold change /veh ARHGAP8 /// PRR5-ARHGAP8 (11727945_x_at) / RFU KRTAP5-7 /// NADSYN1 (11734609_at) / Fold change /veh KRTAP5-7 /// NADSYN1 (11734609_at) / RFU RASL12 (11751679_a_at) / Fold change /veh RASL12 (11751679_a_at) / RFU CDKN2B (11736163_a_at) / Fold change /veh CDKN2B (11736163_a_at) / RFU PRF1 (11729649_at) / Fold change /veh PRF1 (11729649_at) / RFU, ZNF638 /// ZNF638-IT1 / Fold change vs veh, ZNF638 /// ZNF638-IT1 / RFU, PANK3 / Fold change vs veh, PANK3 / RFU, SH3YL1 / Fold change vs veh, SH3YL1 / RFU, ZEB2 / Fold change vs veh, ZEB2 / RFU, NRIP1 / Fold change vs veh, NRIP1 / RFU, PTTG1IP / Fold change vs veh, PTTG1IP / RFU, CAPN2 / Fold change vs veh, CAPN2 / RFU, MED14 / Fold change vs veh, MED14 / RFU, SNORA58 / Fold change vs veh, SNORA58 / RFU, C1orf63 / Fold change vs veh, C1orf63 / RFU, LRRFIP1 / Fold change vs veh, LRRFIP1 / RFU, NDUFAF7 / Fold change vs veh, NDUFAF7 / RFU, SLC12A2 / Fold change vs veh, SLC12A2 / RFU, IBTK / Fold change vs veh, IBTK / RFU, ESF1 / Fold change vs veh, ESF1 / Fold change vs veh, TMEM50B / RFU, TAOK1 / Fold change vs veh, TAOK1 / RFU, ACBD3 / Fold change vs veh, ACBD3 / RFU, TMA16 / Fold change vs veh, TMA16 / RFU, RWDD3 / Fold change vs veh, RWDD3 / RFU, BCAT1 / Fold change vs veh, BCAT1 / RFU, EDEM3 / Fold change vs veh, EDEM3 / RFU, TMEM33 / Fold change vs veh, TMEM33 / RFU, WDR75 / Fold change vs veh, WDR75 / RFU, AHCTF1 / Fold change vs veh, AHCTF1 / RFU, TFRC / Fold change vs veh, TFRC / RFU, ZDHHC17 / Fold change vs veh, ZDHHC17 / RFU, NOM1 / Fold change vs veh, NOM1 / RFU, ARL8B / Fold change vs veh, ARL8B / RFU, ZBTB11 / Fold change vs veh, ZBTB11 / RFU, TAMM41 / Fold change vs veh, TAMM41 / RFU, KIAA1704 /// LOC100996395 / Fold change vs veh, KIAA1704 /// LOC100996395 / RFU, ING1 / Fold change vs veh, ING1 / RFU, TRMT61B / Fold change vs veh, TRMT61B / RFU, FUBP3 / Fold change vs veh, FUBP3 / RFU, TP53 / Fold change vs veh, TP53 / RFU, TNKS2 / Fold change vs veh, TNKS2 / RFU, ZFP14 / Fold change vs veh, ZFP14 / RFU, ACTR2 / Fold change vs veh, ACTR2 / RFU, PPP3R1 / Fold change vs veh, PPP3R1 / RFU, PIK3R1 / Fold change vs veh, PIK3R1 / RFU, HNRNPA1 / Fold change vs veh, HNRNPA1 / RFU, RNF170 / Fold change vs veh, RNF170 / RFU, ZNF28 / Fold change vs veh, ZNF28 / RFU, RNGTT / Fold change vs veh, RNGTT / RFU, OGT / Fold change vs veh, OGT / RFU, BRD1 / Fold change vs veh, BRD1 / RFU, MARS / Fold change vs veh, MARS / RFU, ZNF655 / Fold change vs veh, ZNF655 / RFU, FAHD1 / Fold change vs veh, FAHD1 / RFU, BDP1 / Fold change vs veh, BDP1 / RFU, LRRCC1 / Fold change vs veh, LRRCC1 / RFU, ARID1A / Fold change vs veh, ARID1A / RFU, ZNF146 / Fold change vs veh, ZNF146 / RFU, ZNF330 / Fold change vs veh, ZNF330 / RFU, GPN3 / Fold change vs veh, GPN3 / RFU, C9orf123 / Fold change vs veh, C9orf123 / RFU, N4BP2L2 / Fold change vs veh, N4BP2L2 / RFU, ARFIP1 / Fold change vs veh, ARFIP1 / RFU, FAM179B / Fold change vs veh, FAM179B / RFU, BCL10 / Fold change vs veh, BCL10 / RFU, UHRF1BP1L / Fold change vs veh, UHRF1BP1L / RFU, BET1 / Fold change vs veh, BET1 / RFU, CNOT2 / Fold change vs veh, CNOT2 / RFU, ZNF268 / Fold change vs veh, ZNF268 / Fold change vs veh, ZNF507 / RFU, DGCR2 / Fold change vs veh, DGCR2 / RFU, WDSUB1 / Fold change vs veh, WDSUB1 / Fold change vs veh, HSP90B1 /// MIR3652 / RFU, ADSS / Fold change vs veh, ADSS / RFU, GK / Fold change vs veh, GK / RFU, ZNF148 / Fold change vs veh, ZNF148 / RFU, TAF9 / Fold change vs veh, TAF9 / RFU, SLC1A5 / Fold change vs veh, SLC1A5 / RFU, SLMO2 / Fold change vs veh, SLMO2 / RFU, ABCC4 / Fold change vs veh, ABCC4 / RFU, LOC101060439 /// RAP1B / Fold change vs veh, LOC101060439 /// RAP1B / RFU, RFX7 / Fold change vs veh, RFX7 / RFU, GTPBP10 / Fold change vs veh, GTPBP10 / RFU, CNEP1R1 / Fold change vs veh, CNEP1R1 / RFU, BIVM-ERCC5 /// ERCC5 / Fold change vs veh, BIVM-ERCC5 /// ERCC5 / RFU, ILF3 / Fold change vs veh, ILF3 / RFU 11762660_at / Fold change /veh 11762660_at / RFU VCAN (11757783_s_at) / Fold change /veh VCAN (11757783_s_at) / RFU DDX43 (11728927_at) / Fold change /veh DDX43 (11728927_at) / RFU KRT8 (11758188_x_at) / Fold change /veh KRT8 (11758188_x_at) / RFU NKD1 (11759106_at) / Fold change /veh NKD1 (11759106_at) / RFU SRD5A1 (11742802_a_at) / Fold change /veh SRD5A1 (11742802_a_at) / RFU TPSAB1 /// TPSB2 (11721975_s_at) / Fold change /veh TPSAB1 /// TPSB2 (11721975_s_at) / RFU GSTM3 (11746129_a_at) / Fold change /veh GSTM3 (11746129_a_at) / RFU IL23R (11737362_x_at) / Fold change /veh IL23R (11737362_x_at) / RFU TMEM51 (11727254_a_at) / Fold change /veh TMEM51 (11727254_a_at) / RFU PIWIL2 (11732686_x_at) / Fold change /veh PIWIL2 (11732686_x_at) / RFU ORM1 (11744905_x_at) / Fold change /veh ORM1 (11744905_x_at) / RFU CCDC152 (11743942_at) / Fold change /veh CCDC152 (11743942_at) / RFU ECM1 (11717891_a_at) / Fold change /veh ECM1 (11717891_a_at) / RFU IL23R (11748794_a_at) / Fold change /veh IL23R (11748794_a_at) / RFU TNFAIP8L3 (11732012_x_at) / Fold change /veh TNFAIP8L3 (11732012_x_at) / RFU MBOAT4 (11741988_at) / Fold change /veh MBOAT4 (11741988_at) / RFU 11764193_at / Fold change /veh 11764193_at / RFU TMEM53 (11763286_at) / Fold change /veh TMEM53 (11763286_at) / RFU MAGEB2 (11727129_at) / Fold change /veh MAGEB2 (11727129_at) / RFU TMEM200A (11744735_a_at) / Fold change /veh TMEM200A (11744735_a_at) / RFU CCDC152 (11751479_a_at) / Fold change /veh CCDC152 (11751479_a_at) / RFU FAM211A (11726209_a_at) / Fold change /veh FAM211A (11726209_a_at) / RFU RGS16 (11746705_a_at) / Fold change /veh RGS16 (11746705_a_at) / RFU VCAN (11755009_s_at) / Fold change /veh VCAN (11755009_s_at) / RFU RHOB (11743442_s_at) / Fold change /veh RHOB (11743442_s_at) / RFU RGS16 (11720943_a_at) / Fold change /veh RGS16 (11720943_a_at) / RFU RGS16 (11720944_at) / Fold change /veh RGS16 (11720944_at) / RFU, VPS4B / Fold change vs veh, VPS4B / RFU, CREB1 / Fold change vs veh, CREB1 / RFU, DNAJC13 / Fold change vs veh, DNAJC13 / RFU, GNAQ / Fold change vs veh, GNAQ / RFU, CDK5R1 / Fold change vs veh, CDK5R1 / RFU, ZRANB3 / Fold change vs veh, ZRANB3 / RFU, CUL4A / Fold change vs veh, CUL4A / RFU, CCNY / Fold change vs veh, CCNY / RFU, UFL1 / Fold change vs veh, UFL1 / RFU, COG3 / Fold change vs veh, COG3 / RFU, DIAPH2 / Fold change vs veh, DIAPH2 / RFU, SKA2 / Fold change vs veh, SKA2 / RFU, AFF3 / Fold change vs veh, AFF3 / RFU, LMF1 / Fold change vs veh, LMF1 / RFU, IPO11 / Fold change vs veh, IPO11 / RFU, DFFB / Fold change vs veh, DFFB / RFU, FOXP1 / Fold change vs veh, FOXP1 / RFU, CARD8 / Fold change vs veh, CARD8 / RFU, STRN3 / Fold change vs veh, STRN3 / RFU, ADK / Fold change vs veh, ADK / RFU, RASSF2 / Fold change vs veh, RASSF2 / RFU, WIPF1 / Fold change vs veh, WIPF1 / RFU, LARP1B / Fold change vs veh, LARP1B / RFU, RASA1 / Fold change vs veh, RASA1 / RFU, RB1 / Fold change vs veh, RB1 / RFU, PPFIA1 / Fold change vs veh, PPFIA1 / RFU, MAT2A / Fold change vs veh, MAT2A / RFU, CCT5 / Fold change vs veh, CCT5 / RFU, WDR92 / Fold change vs veh, WDR92 / RFU, CUX1 / Fold change vs veh, CUX1 / RFU, TTC7A / Fold change vs veh, TTC7A / RFU, TMEM135 / Fold change vs veh, TMEM135 / RFU, DEPTOR / Fold change vs veh, DEPTOR / RFU, CPM / Fold change vs veh, CPM / RFU, DNAJB6 / Fold change vs veh, DNAJB6 / RFU, CACNA2D3 / Fold change vs veh, CACNA2D3 / RFU, DTX4 / Fold change vs veh, DTX4 / RFU, TFCP2 / Fold change vs veh, TFCP2 / RFU, GMCL1 /// GMCL1P1 / Fold change vs veh, GMCL1 /// GMCL1P1 / RFU, AEBP2 / Fold change vs veh, AEBP2 / RFU, SNHG1 /// SNORD22 /// SNORD25 /// SNORD26 /// SNORD27 /// SNORD28 /// SNORD29 /// SNORD31 / Fold change vs veh, SNHG1 /// SNORD22 /// SNORD25 /// SNORD26 /// SNORD27 /// SNORD28 /// SNORD29 /// SNORD31 / Fold change (Aza/veh), C12orf56 (ProbeSet 11735607_a_at) / Fold change (ACY-1035/veh), C12orf56 (ProbeSet 11735607_a_at) / Fold change (Aza/veh), FGFR1OP (ProbeSet 11751329_s_at) / Fold change (ACY-1035/veh), FGFR1OP (ProbeSet 11751329_s_at) / Fold change (Aza/veh), VPS36 (ProbeSet 11739960_a_at) / Fold change (ACY-1035/veh), VPS36 (ProbeSet 11739960_a_at) / RFU SYPL1 (11715823_x_at) / Fold change /veh SYPL1 (11715823_x_at) / RFU IGFBP7 (11715501_s_at) / Fold change /veh IGFBP7 (11715501_s_at) / RFU REEP3 (11722064_at) / Fold change /veh REEP3 (11722064_at) / RFU IGLL1 (11728026_x_at) / Fold change /veh IGLL1 (11728026_x_at): dose or concentration left out as unconfirmed. It is filed as cell-based, human. The following applies: MV-4-11 cells, 48 hours.

For `Nc1ncn([C@@H]2O[C@H](CO)[C@@H](O)[C@H]2O)c(=O)n1` [azacitidine], the “RFU TMEM51 (11727254_a_at)” value came out at 17.35 RFU.
